Several values for one entry are separate records, joined by “and”; a condition that tells them apart may be missing. Equal values may be shown once.
Details: Gas, Frequency=0.05 MHz, Single path-length method

FC(F)(F)C(F)(F)C(F)(F)F [octafluoropropane]
Details | speed of sound
251.1 K, 62.4 kPa | 106.76 m/s
251.1 K, 71.8 kPa | 106.39 m/s
251.1 K, 80.5 kPa | 106.08 m/s
251.1 K, 89.7 kPa | 105.72 m/s
251.1 K, 102 kPa | 105.24 m/s
251.1 K, 118.2 kPa | 104.61 m/s
251.1 K, 143.1 kPa | 103.57 m/s
251.1 K, 167.2 kPa | 102.56 m/s
256.3 K, 63.7 kPa | 107.91 m/s
256.3 K, 73.3 kPa | 107.57 m/s
256.3 K, 82.2 kPa | 107.26 m/s
256.3 K, 91.7 kPa | 106.91 m/s
256.3 K, 104.3 kPa | 106.47 m/s
256.3 K, 120.9 kPa | 105.85 m/s
256.3 K, 146.4 kPa | 104.86 m/s
256.3 K, 171.2 kPa | 103.89 m/s
256.3 K, 198.4 kPa | 102.79 m/s
256.3 K, 221.3 kPa | 101.83 m/s
261.6 K, 65.1 kPa | 109.07 m/s
261.6 K, 74.9 kPa | 108.75 m/s
261.6 K, 84 kPa | 108.44 m/s
261.6 K, 93.7 kPa | 108.11 m/s
261.6 K, 106.6 kPa | 107.67 m/s
261.6 K, 123.6 kPa | 107.08 m/s
261.6 K, 149.8 kPa | 106.13 m/s
261.6 K, 175.2 kPa | 105.21 m/s
261.6 K, 203.2 kPa | 104.16 m/s
261.6 K, 226.7 kPa | 103.22 m/s
261.6 K, 233.4 kPa | 102.97 m/s
261.6 K, 253.9 kPa | 102.14 m/s
266.8 K, 66.4 kPa | 110.2 m/s
266.8 K, 76.4 kPa | 109.87 m/s
266.8 K, 85.7 kPa | 109.58 m/s
266.8 K, 95.7 kPa | 109.25 m/s
266.8 K, 108.8 kPa | 108.83 m/s
266.8 K, 126.3 kPa | 108.28 m/s
266.8 K, 153 kPa | 107.37 m/s
266.8 K, 179.2 kPa | 106.48 m/s
266.8 K, 207.8 kPa | 105.46 m/s
266.8 K, 232.2 kPa | 104.58 m/s
266.8 K, 238.9 kPa | 104.32 m/s
266.8 K, 260 kPa | 103.52 m/s
272.1 K, 67.8 kPa | 111.33 m/s
272.1 K, 78 kPa | 111.03 m/s
272.1 K, 87.5 kPa | 110.74 m/s
272.1 K, 97.7 kPa | 110.44 m/s
272.1 K, 111.1 kPa | 110.02 m/s
272.1 K, 128.9 kPa | 109.46 m/s and 109.47 m/s
272.1 K, 156.4 kPa | 108.62 m/s and 108.61 m/s
272.1 K, 183.1 kPa | 107.74 m/s
272.1 K, 212.6 kPa | 106.77 m/s
272.1 K, 237.5 kPa | 105.93 m/s
272.1 K, 244.5 kPa | 105.69 m/s
272.1 K, 266.3 kPa | 104.92 m/s
277.4 K, 69.1 kPa | 112.44 m/s
277.4 K, 79.6 kPa | 112.15 m/s
277.4 K, 89.3 kPa | 111.87 m/s
277.4 K, 99.7 kPa | 111.58 m/s
277.4 K, 113.4 kPa | 111.18 m/s
277.4 K, 131.6 kPa | 110.66 m/s
277.4 K, 159.7 kPa | 109.81 m/s
277.4 K, 187.1 kPa | 108.99 m/s
277.4 K, 217.3 kPa | 108.05 m/s
277.4 K, 242.9 kPa | 107.24 m/s
277.4 K, 250.1 kPa | 107.02 m/s
277.4 K, 272.5 kPa | 106.29 m/s
282.7 K, 70.4 kPa | 113.54 m/s
282.7 K, 81.2 kPa | 113.28 m/s
282.7 K, 91 kPa | 113 m/s
282.7 K, 101.6 kPa | 112.71 m/s
282.7 K, 115.6 kPa | 112.32 m/s
282.7 K, 134.3 kPa | 111.82 m/s
282.7 K, 163 kPa | 111.01 m/s
282.7 K, 191.1 kPa | 110.22 m/s
282.7 K, 222 kPa | 109.31 m/s
282.7 K, 248.3 kPa | 108.54 m/s
282.7 K, 255.6 kPa | 108.32 m/s
282.7 K, 278.6 kPa | 107.62 m/s
287.9 K, 71.8 kPa | 114.63 m/s
287.9 K, 82.7 kPa | 114.36 m/s
287.9 K, 92.8 kPa | 114.11 m/s
287.9 K, 103.6 kPa | 113.84 m/s
287.9 K, 117.9 kPa | 113.46 m/s
287.9 K, 136.9 kPa | 112.97 m/s
287.9 K, 166.3 kPa | 112.19 m/s
287.9 K, 195 kPa | 111.42 m/s
287.9 K, 226.7 kPa | 110.56 m/s
287.9 K, 253.6 kPa | 109.81 m/s
287.9 K, 261.1 kPa | 109.59 m/s
287.9 K, 284.7 kPa | 108.91 m/s
293.2 K, 73.1 kPa | 115.72 m/s
293.2 K, 84.2 kPa | 115.45 m/s
293.2 K, 84.3 kPa | 115.46 m/s
293.2 K, 94.5 kPa | 115.2 m/s
293.2 K, 94.6 kPa | 115.21 m/s
293.2 K, 105.6 kPa | 114.93 m/s and 114.94 m/s
293.2 K, 120.1 kPa | 114.57 m/s
293.2 K, 139.6 kPa | 114.1 m/s
293.2 K, 169.6 kPa | 113.36 m/s
293.2 K, 198.9 kPa | 112.61 m/s
293.2 K, 231.3 kPa | 111.79 m/s
293.2 K, 231.4 kPa | 111.79 m/s
293.2 K, 258.8 kPa | 111.04 m/s
293.2 K, 258.9 kPa | 111.05 m/s
293.2 K, 266.6 kPa | 110.85 m/s
293.2 K, 266.7 kPa | 110.86 m/s
293.2 K, 290.7 kPa | 110.18 m/s
293.2 K, 290.8 kPa | 110.19 m/s
298.4 K, 74.5 kPa | 116.78 m/s
298.4 K, 85.8 kPa | 116.53 m/s
298.4 K, 96.3 kPa | 116.29 m/s
298.4 K, 107.6 kPa | 116.05 m/s
298.4 K, 122.4 kPa | 115.7 m/s
298.4 K, 142.2 kPa | 115.21 m/s
298.4 K, 172.8 kPa | 114.5 m/s
298.4 K, 202.9 kPa | 113.8 m/s
298.4 K, 235.9 kPa | 112.97 m/s
298.4 K, 264.2 kPa | 112.28 m/s
298.4 K, 272.1 kPa | 112.08 m/s
298.4 K, 296.8 kPa | 111.46 m/s
303.7 K, 75.8 kPa | 117.86 m/s
303.7 K, 87.4 kPa | 117.61 m/s
303.7 K, 98.1 kPa | 117.39 m/s
303.7 K, 109.5 kPa | 117.14 m/s
303.7 K, 124.7 kPa | 116.78 m/s
303.7 K, 144.9 kPa | 116.33 m/s
303.7 K, 176.2 kPa | 115.66 m/s
303.7 K, 206.7 kPa | 114.96 m/s
303.7 K, 240.6 kPa | 114.17 m/s
303.7 K, 269.4 kPa | 113.49 m/s
303.7 K, 277.6 kPa | 113.32 m/s
308.9 K, 77.1 kPa | 118.9 m/s
308.9 K, 88.9 kPa | 118.66 m/s
308.9 K, 99.8 kPa | 118.44 m/s
308.9 K, 111.5 kPa | 118.19 m/s
308.9 K, 127 kPa | 117.87 m/s
308.9 K, 147.5 kPa | 117.44 m/s
308.9 K, 179.4 kPa | 116.75 m/s
308.9 K, 210.6 kPa | 116.08 m/s
308.9 K, 245.2 kPa | 115.33 m/s
308.9 K, 274.7 kPa | 114.68 m/s
308.9 K, 283 kPa | 114.5 m/s
314.1 K, 78.5 kPa | 119.93 m/s
314.1 K, 90.4 kPa | 119.69 m/s
314.1 K, 101.6 kPa | 119.47 m/s
314.1 K, 113.4 kPa | 119.24 m/s
314.1 K, 129.2 kPa | 118.93 m/s
314.1 K, 150.2 kPa | 118.52 m/s
314.1 K, 182.7 kPa | 117.85 m/s
314.1 K, 214.5 kPa | 117.21 m/s
314.1 K, 249.8 kPa | 116.47 m/s
314.1 K, 279.9 kPa | 115.84 m/s
314.1 K, 288.4 kPa | 115.67 m/s
319.4 K, 79.8 kPa | 120.96 m/s
319.4 K, 92 kPa | 120.74 m/s
319.4 K, 103.3 kPa | 120.52 m/s
319.4 K, 115.4 kPa | 120.29 m/s
319.4 K, 131.4 kPa | 119.98 m/s
319.4 K, 152.8 kPa | 119.58 m/s
319.4 K, 185.9 kPa | 118.95 m/s
319.4 K, 218.4 kPa | 118.33 m/s
319.4 K, 254.4 kPa | 117.62 m/s
319.4 K, 285.1 kPa | 117.02 m/s
319.4 K, 293.8 kPa | 116.85 m/s
324.6 K, 81.2 kPa | 121.98 m/s
324.6 K, 93.5 kPa | 121.75 m/s
324.6 K, 105.1 kPa | 121.56 m/s
324.6 K, 117.4 kPa | 121.32 m/s
324.6 K, 133.7 kPa | 121.03 m/s
324.6 K, 155.4 kPa | 120.64 m/s
324.6 K, 189.2 kPa | 120.02 m/s
324.6 K, 222.3 kPa | 119.43 m/s
324.6 K, 259 kPa | 118.74 m/s
324.6 K, 290.3 kPa | 118.16 m/s
324.6 K, 299.2 kPa | 117.99 m/s

From the NIST ThermoML archive (doi:10.1021/acs.jced.6b00536)
